PubChem BioAssay AID338 (DTP/NCI, 2004)
Values joined by “and” are separate entries in the source; they are usually repeats but may differ in a detail not shown here. Equal entries are not always repeated. Inconclusive results and toxic doses are left out. *1 amine or outer side, *2 acyl side, *3 side chain or, on linkers, in order; H or OH if unused. Where a SMILES comes first, the peptide text is derived from it. Bridges are numbered along the chain shown (N, C = ends). Roman numbers before positions name the chains, in order. [ ]: non-standard residue; d: D form. Actinocin(9to1) = Cc1c2oc3c(C)ccc(C(=O)[*:1])c3nc-2c(C(=O)[*:2])c(N)c1=O; aThr = C[C@H](O)[C@H](N)C(=O)O; NMeV = CN[C@H](C(=O)O)C(C)C; Sar = CNCC(=O)O

Tested on: BDF1 mice, P388 leukemia (terephthalanilide-resistant), survival T/C
Test: NCI In Vivo Anticancer Drug Screen. Data for tumor model P388 Leukemia resistant to A Terephthalanilide; NSC 38280 (intraperitoneal) in B6D2F1 (BDF1) mice
Conditions: endpoint: median survival time, schedule: Q01DX010 (ip), higher = longer survival
Method: The antitumor activity of compounds was measured in mice bearing transplantable tumors. Survival or tumor size were measured and the results are expressed as the measurement made in the treated group (T) divided by the measurement made in the vehicle treated control group (C). The tumor model used in this assay is P388 Leukemia resistant to A Terephthalanilide; NSC 38280 (intraperitoneal) in B6D2F1 (BDF1) mice

[1] = dose: 31.3 mg/kg/injection, vehicle: saline
[2] = dose: 62.5 mg/kg/injection, vehicle: saline
[3] = dose: 20.0 mg/kg/injection, vehicle: saline
[4] = dose: 30.0 mg/kg/injection, vehicle: saline
[5] = dose: 0.5 mg/kg/injection, vehicle: saline
[6] = dose: 1.0 mg/kg/injection, vehicle: saline
[7] = dose: 2.0 mg/kg/injection, vehicle: saline
[8] = dose: 125.0 mg/kg/injection, vehicle: saline
[9] = dose: 250.0 mg/kg/injection, vehicle: saline
[10] = dose: 25.0 micrograms/kg/injection, vehicle: other
[11] = dose: 50.0 micrograms/kg/injection, vehicle: other

Compound: CCCSc1ncnc2nc[nH]c12
- T/C [1]: 118 % of control
- T/C [2]: 112 % of control

Compound: CNc1nc(Nc2ccc(C3=NCCN3)cc2)nc(Nc2ccc(C3=NCCN3)cc2)n1
- T/C (dose: 13.3 mg/kg/injection, vehicle: saline): 117 % of control
- T/C [3]: 111 % of control
- T/C [4]: 117 % of control

Compound: NC(=O)N(CCCl)N=O
- T/C [5]: 172 % of control
- T/C [6]: 172 % of control
- T/C [7]: 109 % of control

Compound: c1ccc(CCSc2ncnc3nc[nH]c23)cc1
- T/C [2]: 90 % of control
- T/C [8]: 90 % of control
- T/C [9]: 100 % of control
- T/C (dose: 500.0 mg/kg/injection, vehicle: saline): 100 % of control

Compound: CCCCNc1ncnc2c1cnn2C
- T/C [1]: 100 % of control
- T/C [2]: 95 % of control and 111 % of control
- T/C [8]: 88 % of control

Compound: O=C1C(NC(=O)C2CCCCC2)=C(N2CC2)C(=O)C(NC(=O)C2CCCCC2)=C1N1CC1
- T/C (dose: 200.0 mg/kg/injection, vehicle: saline): 90 % of control

Compound: Cn1c(N)nc2nc[nH]c2c1=S
- T/C [3]: 100 % of control
- T/C (dose: 40.0 mg/kg/injection, vehicle: saline): 100 % of control
- T/C (dose: 80.0 mg/kg/injection, vehicle: saline): 95 % of control
- T/C (dose: 160.0 mg/kg/injection, vehicle: saline): 90 % of control

Compound: Clc1ncnc2nc[nH]c12
- T/C (dose: 7.5 mg/kg/injection, vehicle: saline): 87 % of control
- T/C (dose: 15.0 mg/kg/injection, vehicle: saline): 87 % of control and 93 % of control
- T/C [4]: 87 % of control and 106 % of control
- T/C (dose: 60.0 mg/kg/injection, vehicle: saline): 93 % of control

Compound: CN=C(NC)c1ccc(NC(=O)c2ccc(C(=O)Nc3ccc(C(=NC)NC)cc3)c(Cl)c2)cc1
- T/C (dose: 18.0 mg/kg/injection, vehicle: saline): 105 % of control
- T/C (dose: 27.0 mg/kg/injection, vehicle: saline): 100 % of control

Compound: CS(=O)(=O)OCCN(CCOS(C)(=O)=O)c1ccc(N=O)cc1
- T/C [5]: 100 % of control
- T/C [6]: 109 % of control
- T/C [7]: 109 % of control and 113 % of control

Compound: CN(C)c1ccc(/C=C\c2ccnc3ccccc23)cc1
- T/C (dose: 1.5 mg/kg/injection, vehicle: saline): 91 % of control
- T/C (dose: 12.0 mg/kg/injection, vehicle: saline): 91 % of control

Compound: Cc1c2oc3c(C)ccc(C(=O)N[C@@H]4C(=O)N[C@H](C(C)C)C(=O)N5CCC[C@H]5C(=O)N(C)CC(=O)N(C)[C@@H](C(C)C)C(=O)O[C@H]4C)c3nc-2c(C(=O)N[C@@H]2C(=O)N[C@H](C(C)C)C(=O)N3CCC[C@H]3C(=O)N(C)CC(=O)N(C)[C@@H](C(C)C)C(=O)O[C@H]2C)c(N)c1=O (I: [aThr][dV]P[Sar][NMeV] / II: [aThr][dV]P[Sar][NMeV]; ester I:1-I:C, II:1-II:C; linker I:N-II:N via Actinocin(9to1))
- T/C (dose: 12.5 micrograms/kg/injection, vehicle: other): 111 % of control and 120 % of control
- T/C [10]: 116 % of control and 120 % of control
- T/C [11]: 120 % of control and 122 % of control
- T/C (dose: 100.0 micrograms/kg/injection, vehicle: other): 115 % of control and 122 % of control

Compound: O=C1CCC(N2C(=O)c3ccccc3C2=O)C(=O)N1 (configuration not stated)
- T/C [1]: 117 % of control
- T/C [2]: 100 % of control and 117 % of control
- T/C [8]: 100 % of control and 105 % of control
- T/C [9]: 90 % of control and 94 % of control

Compound: Nc1nc(N)c2nc(CNc3ccc(C(=O)NC(CCC(=O)O)C(=O)O)cc3)cnc2n1 (configuration not stated)
- T/C [10]: 112 % of control
- T/C [11]: 112 % of control
- T/C (dose: 200.0 micrograms/kg/injection, vehicle: other): 150 % of control
